Data on 20 compounds can be found in patent US20260132129A1 (Genesis Therapeutics, Inc., priority 2022, published 2026).

Each structure is given as a SMILES string.

This test has as its target T1, PI3Kα H1047R (T47D cells) (Homo sapiens, UniProt P42336, H1047R).
T1 construct: endogenous in cells; host or cells: T47D cells
Description: PI3Kα cellular assay: pAKT HTRF in T47D cells after EGF stimulation. It counts as cell-based. To be noted: for IC50: T47D cells (PI3Kα H1047R), pAKT S473 HTRF, EGF stimulation; for T47D pAKT S473 HTRF IC50 (H1047R): T47D (H1047R) selectivity over SKBR3 (WT): selectivity of T47D (H1047R) over SKBR3 (WT) pAKT IC50. In a few lines:
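pAKT read by HTRF in lysates of EGF-stimulated (20 ng/mL, 10 min) T47D H1047R cells. Before stimulation, serum-starved cells (16 h) received compound for 1 h at 37 °C, dosed from 10,000 nM down to 0.5 nM in 3-fold steps.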
On the technique in general: TR-FRET usually uses a lanthanide donor and a delayed reading to cut background.

T1 sequence (P42336 whole entry H1047R): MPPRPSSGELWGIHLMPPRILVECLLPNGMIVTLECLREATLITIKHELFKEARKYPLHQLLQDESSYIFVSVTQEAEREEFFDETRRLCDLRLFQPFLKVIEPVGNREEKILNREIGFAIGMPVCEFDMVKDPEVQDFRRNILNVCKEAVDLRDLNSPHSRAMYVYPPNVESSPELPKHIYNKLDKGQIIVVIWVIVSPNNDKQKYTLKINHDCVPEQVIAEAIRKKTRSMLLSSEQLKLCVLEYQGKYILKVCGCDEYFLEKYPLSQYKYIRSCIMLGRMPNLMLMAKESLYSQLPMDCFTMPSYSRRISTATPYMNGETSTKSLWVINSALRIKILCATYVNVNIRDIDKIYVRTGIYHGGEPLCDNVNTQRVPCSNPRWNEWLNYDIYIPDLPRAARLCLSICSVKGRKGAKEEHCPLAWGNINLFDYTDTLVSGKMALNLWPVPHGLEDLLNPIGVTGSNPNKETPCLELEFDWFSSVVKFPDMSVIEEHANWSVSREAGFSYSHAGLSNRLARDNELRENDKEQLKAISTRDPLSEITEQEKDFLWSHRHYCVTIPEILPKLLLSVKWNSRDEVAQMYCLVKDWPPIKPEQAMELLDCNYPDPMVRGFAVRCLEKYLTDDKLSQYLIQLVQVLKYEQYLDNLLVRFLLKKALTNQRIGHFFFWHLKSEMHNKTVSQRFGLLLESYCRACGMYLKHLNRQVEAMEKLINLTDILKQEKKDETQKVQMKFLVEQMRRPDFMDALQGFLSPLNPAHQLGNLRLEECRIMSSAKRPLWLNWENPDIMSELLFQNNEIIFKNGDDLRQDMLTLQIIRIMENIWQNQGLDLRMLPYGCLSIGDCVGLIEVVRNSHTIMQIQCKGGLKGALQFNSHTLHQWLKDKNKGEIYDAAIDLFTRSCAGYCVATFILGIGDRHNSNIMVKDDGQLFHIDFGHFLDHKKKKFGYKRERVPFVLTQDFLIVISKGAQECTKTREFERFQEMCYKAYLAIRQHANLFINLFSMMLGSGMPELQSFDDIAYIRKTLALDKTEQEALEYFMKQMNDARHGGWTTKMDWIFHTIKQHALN
T1 sequence (P27986 whole entry partner): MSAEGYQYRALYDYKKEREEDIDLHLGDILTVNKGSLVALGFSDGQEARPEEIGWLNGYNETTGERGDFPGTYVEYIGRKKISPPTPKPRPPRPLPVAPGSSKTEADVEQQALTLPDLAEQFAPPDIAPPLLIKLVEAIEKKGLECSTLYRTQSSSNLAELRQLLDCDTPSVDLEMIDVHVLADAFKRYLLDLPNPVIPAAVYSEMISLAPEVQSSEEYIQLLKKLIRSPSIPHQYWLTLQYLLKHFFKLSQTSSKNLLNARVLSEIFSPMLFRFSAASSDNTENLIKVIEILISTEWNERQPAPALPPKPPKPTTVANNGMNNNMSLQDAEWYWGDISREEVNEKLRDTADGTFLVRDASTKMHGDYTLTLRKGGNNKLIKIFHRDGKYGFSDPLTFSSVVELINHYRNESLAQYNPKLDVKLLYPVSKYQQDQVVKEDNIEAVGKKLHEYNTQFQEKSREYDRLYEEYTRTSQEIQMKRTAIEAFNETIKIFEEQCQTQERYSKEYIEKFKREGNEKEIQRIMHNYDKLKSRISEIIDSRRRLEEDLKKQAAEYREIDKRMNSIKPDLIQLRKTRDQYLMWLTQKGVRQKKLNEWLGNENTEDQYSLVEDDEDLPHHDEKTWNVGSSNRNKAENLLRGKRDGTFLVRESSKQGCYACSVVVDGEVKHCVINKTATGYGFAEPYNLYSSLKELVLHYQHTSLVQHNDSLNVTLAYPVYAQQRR

As for `Cc1cc([C@@H](C)Nc2ccccc2C(=O)O)c2nc(-c3ccc(F)c(C)c3)c(C)c(=O)n2c1` [Compound 1022], the IC50 was less than 100 nM and the “T47D pAKT S473 HTRF IC50 (H1047R): T47D (H1047R) selectivity over SKBR3 (WT)” value was “A (A denotes >20-fold)”. Taken in the same sequence, the figures for `Cc1cc(C(C)Nc2ccccc2C(=O)O)c2nc(-c3ccc4c(c3)c(C#N)nn4C3CC3)c(C)c(=O)n2c1` (stereo not shown) [Compound 1026] were 100 to 500 nM and “A (A denotes >20-fold)”. Taken in the same sequence, the figures for `Cc1cc([C@@H](C)Nc2ccccc2S(N)(=O)=O)c2nc(-c3ccc4c(C)nn(C5CC5)c4c3)c(C)c(=O)n2c1` [Compound 1027] were 100 to 500 nM and “A (A denotes >20-fold)”. As for `Cc1cc([C@H](C)Nc2ccccc2S(N)(=O)=O)c2nc(-c3ccc4c(C)nn(C5CC5)c4c3)c(C)c(=O)n2c1` [Compound 1028], the “T47D pAKT S473 HTRF IC50 (H1047R): T47D (H1047R) selectivity over SKBR3 (WT)” value is “C (C denotes ≤5-fold)”. For the compound `Cc1cc([C@H](C)Nc2ccccc2S(N)(=O)=O)c2nc(-c3ccc(F)c(C#N)c3)c(C)c(=O)n2c1` [Compound 1032], the 50% inhibitory concentration (IC50) was greater than 2000 nM and the “T47D pAKT S473 HTRF IC50 (H1047R): T47D (H1047R) selectivity over SKBR3 (WT)” value is on record as “C (C denotes ≤5-fold)”. For the compound `Cc1cc(C(C)Nc2ccccc2S(N)(=O)=O)c2nc(-c3cccc(C#N)c3)c(C)c(=O)n2c1` (stereo not shown) [Compound 1033], the 50% inhibitory concentration (IC50) fell in the range of 100 to 500 nM and the “T47D pAKT S473 HTRF IC50 (H1047R): T47D (H1047R) selectivity over SKBR3 (WT)” value is “A (A denotes >20-fold)”. For `Cc1cc([C@@H](C)Nc2ccccc2S(N)(=O)=O)c2nc(-c3cccc(C#N)c3)c(C)c(=O)n2c1` [Compound 1034], in that order: less than 100 nM and “A (A denotes >20-fold)”. `Cc1cc([C@H](C)Nc2ccccc2S(N)(=O)=O)c2nc(-c3cccc(C#N)c3)c(C)c(=O)n2c1` [Compound 1035]: the 50% inhibitory concentration (IC50) is greater than 2000 nM and the “T47D pAKT S473 HTRF IC50 (H1047R): T47D (H1047R) selectivity over SKBR3 (WT)” value is “C (C denotes ≤5-fold)”. For `C[C@@H]1C[C@H](C)CN(c2cc(=O)n3cc(C(F)(F)F)cc([C@@H](C)Nc4ccccc4C(=O)O)c3n2)C1` [Compound 1036], in that order: less than 100 nM and “A (A denotes >20-fold)”. Turning to `C=CC(=O)Nc1ccc(C(=O)O)c(NC(C)c2cc(C)cn3c(=O)c(C)c(N4Cc5ccccc5C4)nc23)c1` (stereo not shown) [Compound 1039], the half-maximal inhibitory concentration (IC50) is greater than 2000 nM and the “T47D pAKT S473 HTRF IC50 (H1047R): T47D (H1047R) selectivity over SKBR3 (WT)” value is “C (C denotes ≤5-fold)”.

As to `CC(=O)NS(=O)(=O)c1ccccc1N[C@@H](C)c1cc(C)cn2c(=O)c(C)c(-c3ccc4c(c3)CC(F)(F)C4)nc12` [Compound 1040], the “T47D pAKT S473 HTRF IC50 (H1047R): T47D (H1047R) selectivity over SKBR3 (WT)” value was “C (C denotes ≤5-fold)”. On the same count and under the same terms, the same measure for `CCc1c(-c2ccc3c(c2)c(C)cn3C)nc2c([C@H](C)Nc3ccccc3C(=O)O)cc(C)cn2c1=O` [Compound 1043]: “B (B denotes 20-fold≥value>5-fold)”. Take `Cc1cc([C@@H](C)Nc2ccccc2C(=O)O)c2nc(-c3ccc4c(c3)c(C#N)nn4C3CC3)c(C)c(=O)n2c1` [Compound 1048]: the IC50 lay within 100 to 500 nM and the “T47D pAKT S473 HTRF IC50 (H1047R): T47D (H1047R) selectivity over SKBR3 (WT)” value is reported as “A (A denotes >20-fold)”.

As to `Cc1cc([C@H](C)Nc2ccccc2C(=O)O)c2nc(-c3ccc4c(c3)c(C#N)nn4C3CC3)c(C)c(=O)n2c1` [Compound 1049], the IC50 was greater than 2000 nM and the “T47D pAKT S473 HTRF IC50 (H1047R): T47D (H1047R) selectivity over SKBR3 (WT)” value is “C (C denotes ≤5-fold)”. For `Cc1cc([C@@H](C)Nc2ccccc2C(=O)O)c2nc(-c3cnc4c(c3)c(C)cn4C)c(C)c(=O)n2c1` [Compound 1050], in that order: less than 100 nM and “A (A denotes >20-fold)”.

Regarding `Cc1cc([C@H](C)Nc2ccccc2C(=O)O)c2nc(-c3cnc4c(c3)c(C)cn4C)c(C)c(=O)n2c1` [Compound 1051], the “T47D pAKT S473 HTRF IC50 (H1047R): T47D (H1047R) selectivity over SKBR3 (WT)” value is listed as “C (C denotes ≤5-fold)”. With `Cc1cc([C@@H](C)Nc2ccccc2C(=O)O)c2nc(-c3cnc(C)c(Cl)c3)c(C)c(=O)n2c1` [Compound 1052], the IC50 was in the range of 100 to 500 nM and the “T47D pAKT S473 HTRF IC50 (H1047R): T47D (H1047R) selectivity over SKBR3 (WT)” value was “A (A denotes >20-fold)”.

Consider `Cc1cc([C@H](C)Nc2ccccc2C(=O)O)c2nc(-c3cnc4c(c3)c(C)cn4C)c(C)c(=O)n2c1` [Compound 1053], for which the “T47D pAKT S473 HTRF IC50 (H1047R): T47D (H1047R) selectivity over SKBR3 (WT)” value is reported as “C (C denotes ≤5-fold)”. Same read-out and setting: the same measure for `Cc1cc(C(C)Nc2ccccc2C(=O)O)c2nc(-c3cnc4c(c3)c(C)nn4C3CC3)c(C)c(=O)n2c1` (stereo not shown) [Compound 1054]: “B (B denotes 20-fold≥value>5-fold)”. Regarding `Cc1cc([C@@H](C)Nc2ccccc2C(=O)O)c2nc(C3CCOCC3)c(C)c(=O)n2c1` [Compound 1055], the IC50 was in the range of 100 to 500 nM and the “T47D pAKT S473 HTRF IC50 (H1047R): T47D (H1047R) selectivity over SKBR3 (WT)” value was “A (A denotes >20-fold)”.

In general, IC50 refers to the midpoint of a concentration-inhibition curve. High values mean weaker potency, low ones greater potency.
